The target in this assay is Rho-associated protein kinase 2 (Homo sapiens, UniProt O75116). In words: Inhibition of ROCK2 (unknown origin) using STK2 substrate after 4 hrs by HTRF mode. (In general: TR-FRET usually uses a lanthanide donor and a delayed reading to cut background.)

Structures are written as SMILES.

Chain of Rho-associated protein kinase 2 (O75116 whole entry): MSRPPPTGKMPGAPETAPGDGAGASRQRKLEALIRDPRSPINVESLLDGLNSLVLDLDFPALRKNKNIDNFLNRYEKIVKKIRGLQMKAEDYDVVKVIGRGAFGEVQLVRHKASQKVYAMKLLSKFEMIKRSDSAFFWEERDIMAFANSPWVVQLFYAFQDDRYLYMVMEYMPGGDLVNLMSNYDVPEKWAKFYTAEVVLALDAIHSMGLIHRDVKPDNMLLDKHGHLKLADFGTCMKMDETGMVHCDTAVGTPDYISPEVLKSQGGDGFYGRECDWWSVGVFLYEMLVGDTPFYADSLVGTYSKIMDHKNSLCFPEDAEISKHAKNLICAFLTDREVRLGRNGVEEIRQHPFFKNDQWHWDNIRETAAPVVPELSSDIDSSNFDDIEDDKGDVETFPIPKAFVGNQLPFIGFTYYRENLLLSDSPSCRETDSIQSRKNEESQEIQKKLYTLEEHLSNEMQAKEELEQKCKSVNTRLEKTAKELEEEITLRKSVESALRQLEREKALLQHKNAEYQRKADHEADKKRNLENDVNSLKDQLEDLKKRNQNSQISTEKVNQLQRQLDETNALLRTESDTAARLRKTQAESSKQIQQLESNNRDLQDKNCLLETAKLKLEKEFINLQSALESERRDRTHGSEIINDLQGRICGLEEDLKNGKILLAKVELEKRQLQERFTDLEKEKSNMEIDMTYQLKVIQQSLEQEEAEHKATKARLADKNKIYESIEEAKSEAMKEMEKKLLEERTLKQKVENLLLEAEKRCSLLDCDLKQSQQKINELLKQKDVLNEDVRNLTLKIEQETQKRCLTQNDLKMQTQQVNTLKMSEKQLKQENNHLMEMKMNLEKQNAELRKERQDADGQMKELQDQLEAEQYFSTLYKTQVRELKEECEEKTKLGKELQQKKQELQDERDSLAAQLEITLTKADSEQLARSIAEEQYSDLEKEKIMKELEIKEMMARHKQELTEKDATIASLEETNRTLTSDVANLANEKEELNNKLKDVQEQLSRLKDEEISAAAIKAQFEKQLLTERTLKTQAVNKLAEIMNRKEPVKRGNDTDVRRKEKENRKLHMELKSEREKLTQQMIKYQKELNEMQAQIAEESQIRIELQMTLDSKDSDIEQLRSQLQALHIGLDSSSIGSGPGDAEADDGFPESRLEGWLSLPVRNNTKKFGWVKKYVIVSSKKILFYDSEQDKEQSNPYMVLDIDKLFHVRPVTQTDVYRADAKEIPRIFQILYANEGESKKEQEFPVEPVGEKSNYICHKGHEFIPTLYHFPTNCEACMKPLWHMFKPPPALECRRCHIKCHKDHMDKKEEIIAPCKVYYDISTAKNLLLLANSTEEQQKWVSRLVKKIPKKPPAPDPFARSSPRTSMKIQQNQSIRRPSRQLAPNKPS

As a reminder, the IC50 is the concentration needed to halve the response being measured. For the compound `CNC(=O)N(CCO)c1ccc(-c2cn[nH]c2)cc1`, half-maximal inhibition (IC50) required 0.751 µM.

The values above are taken from BindingDB's records for doi:10.1016/j.bmc.2015.03.047 (Shanghai Institute of Technology, 2015).
